The target of experiment [1] is DNA dC->dU-editing enzyme APOBEC-3A (Homo sapiens, UniProt P31941). In words: Dose Response confirmation of small molecule APOBEC3A DNA Deaminase Inhibitors via a fluorescence-based single-stranded DNA deaminase assay. [Related pubchem assays (depositor defined):AID493011, AID493024]. In kind it is functional.
For experiment [2], the target named is DNA dC->dU-editing enzyme APOBEC-3G (Homo sapiens, UniProt Q9HC16). In kind it is functional.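 Further: Dose-response counterscreen measuring inhibition of APOBEC3G DNA deaminase activity, run while confirming APOBEC3A inhibitors.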
Experiment [3] deals with T1, Tyrosine-protein phosphatase non-receptor type 7 (Homo sapiens, UniProt P35236).
T1 sequence (P35236 whole entry): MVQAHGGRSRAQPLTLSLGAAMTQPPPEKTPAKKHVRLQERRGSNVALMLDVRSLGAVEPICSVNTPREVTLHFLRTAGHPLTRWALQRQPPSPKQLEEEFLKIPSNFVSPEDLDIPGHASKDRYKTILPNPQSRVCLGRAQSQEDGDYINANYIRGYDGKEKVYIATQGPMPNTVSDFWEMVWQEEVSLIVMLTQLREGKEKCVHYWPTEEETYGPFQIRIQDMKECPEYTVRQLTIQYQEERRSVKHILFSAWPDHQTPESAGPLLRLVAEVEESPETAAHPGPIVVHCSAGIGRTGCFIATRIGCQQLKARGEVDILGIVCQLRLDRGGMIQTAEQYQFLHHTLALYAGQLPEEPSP
In words: redox-active compounds inhibiting HePTP phosphatase – biochemical, fluorescence, mechanism study (AID 2068). In kind it is functional.

The target in experiment [4] is Intestinal-type alkaline phosphatase (Homo sapiens, UniProt P09923). In words: activation of human intestinal alkaline phosphatase – biochemical, dose response (AID 488873). In kind it is functional.
In experiment [5] the target is T2, Rac GTPase-activating protein 1 (Homo sapiens, UniProt Q9H0H5).
T2 sequence (Q9H0H5 whole entry): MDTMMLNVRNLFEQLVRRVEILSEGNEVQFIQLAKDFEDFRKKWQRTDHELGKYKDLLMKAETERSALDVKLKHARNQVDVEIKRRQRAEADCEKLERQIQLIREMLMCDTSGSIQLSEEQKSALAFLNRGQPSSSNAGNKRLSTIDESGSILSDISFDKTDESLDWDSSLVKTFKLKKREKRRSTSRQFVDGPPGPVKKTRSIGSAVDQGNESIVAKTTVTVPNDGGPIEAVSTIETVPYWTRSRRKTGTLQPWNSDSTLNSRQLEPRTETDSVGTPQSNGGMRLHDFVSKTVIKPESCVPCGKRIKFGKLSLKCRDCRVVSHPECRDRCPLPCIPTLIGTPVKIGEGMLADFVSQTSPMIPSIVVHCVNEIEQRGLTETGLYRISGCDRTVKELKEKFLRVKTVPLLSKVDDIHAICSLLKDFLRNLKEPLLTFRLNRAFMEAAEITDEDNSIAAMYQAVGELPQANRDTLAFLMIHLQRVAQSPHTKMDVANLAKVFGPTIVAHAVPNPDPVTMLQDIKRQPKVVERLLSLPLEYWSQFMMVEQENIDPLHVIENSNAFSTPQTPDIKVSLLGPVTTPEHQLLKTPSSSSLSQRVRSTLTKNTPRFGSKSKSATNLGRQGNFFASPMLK
In words: blockers of MgcRacGAP-driven Rac1 GTP hydrolysis – biochemical, ADP Hunter fluorescence, primary and confirmatory, confirmation (AID 624330). In kind it is functional.

A further experiment addresses T3, Protein RecA (Mycobacterium tuberculosis, UniProt P9WHJ3).
T3 sequence (P9WHJ3 whole entry): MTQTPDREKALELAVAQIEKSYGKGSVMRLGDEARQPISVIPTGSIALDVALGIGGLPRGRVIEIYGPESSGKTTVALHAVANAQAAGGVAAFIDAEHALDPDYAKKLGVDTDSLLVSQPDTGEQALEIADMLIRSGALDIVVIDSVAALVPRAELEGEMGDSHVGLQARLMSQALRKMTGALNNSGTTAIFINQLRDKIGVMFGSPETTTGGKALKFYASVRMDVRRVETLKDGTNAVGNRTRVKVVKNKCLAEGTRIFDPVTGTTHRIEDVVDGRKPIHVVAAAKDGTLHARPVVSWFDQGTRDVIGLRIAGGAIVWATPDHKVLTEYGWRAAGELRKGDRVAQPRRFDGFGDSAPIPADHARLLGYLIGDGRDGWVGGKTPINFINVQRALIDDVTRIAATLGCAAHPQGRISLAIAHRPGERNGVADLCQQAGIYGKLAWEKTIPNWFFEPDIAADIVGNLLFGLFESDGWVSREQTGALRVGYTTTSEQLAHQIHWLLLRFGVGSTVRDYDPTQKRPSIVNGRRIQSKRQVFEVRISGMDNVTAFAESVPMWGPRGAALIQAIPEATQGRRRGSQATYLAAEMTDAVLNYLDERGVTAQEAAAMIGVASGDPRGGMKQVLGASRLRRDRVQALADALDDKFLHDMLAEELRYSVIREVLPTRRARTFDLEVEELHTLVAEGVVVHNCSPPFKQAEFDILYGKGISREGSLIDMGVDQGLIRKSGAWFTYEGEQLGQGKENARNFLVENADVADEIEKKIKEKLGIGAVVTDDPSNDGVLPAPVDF
In words: Fluorescence Cell-Free Homogeneous Dose Retest to Identify Inhibitors of RecA-Intein Splicing Activity. [Related pubchem assays (depositor defined):AID2097, AID2223, AID489010, AID492950]. In kind it is functional.

Experiment [6] concerns the target Intestinal-type alkaline phosphatase (Mus musculus, UniProt P24822). In words: PubChem AID 488785. In kind it is functional.
The target of a further experiment is T4, Aspartyl aminopeptidase (Plasmodium falciparum 3D7, UniProt Q8I2J3).
T4 sequence (Q8I2J3 whole entry): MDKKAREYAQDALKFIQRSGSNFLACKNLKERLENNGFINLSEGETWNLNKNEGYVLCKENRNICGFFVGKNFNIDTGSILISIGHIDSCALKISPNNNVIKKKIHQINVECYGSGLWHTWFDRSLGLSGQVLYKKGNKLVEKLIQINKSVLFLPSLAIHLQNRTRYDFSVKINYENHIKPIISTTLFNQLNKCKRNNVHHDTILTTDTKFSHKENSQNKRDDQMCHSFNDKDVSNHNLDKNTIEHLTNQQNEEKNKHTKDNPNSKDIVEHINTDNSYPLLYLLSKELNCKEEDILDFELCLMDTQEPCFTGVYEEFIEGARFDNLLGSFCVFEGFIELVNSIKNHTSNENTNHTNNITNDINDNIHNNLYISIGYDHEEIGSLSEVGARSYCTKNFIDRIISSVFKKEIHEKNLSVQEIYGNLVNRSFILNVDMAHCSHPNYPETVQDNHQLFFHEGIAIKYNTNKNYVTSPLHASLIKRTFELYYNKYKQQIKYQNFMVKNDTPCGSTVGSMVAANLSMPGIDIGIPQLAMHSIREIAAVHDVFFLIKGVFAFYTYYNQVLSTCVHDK

The target in experiment [7] is T5, Alkaline phosphatase, tissue-nonspecific isozyme (Homo sapiens, UniProt P05186).
T5 sequence (P05186 whole entry): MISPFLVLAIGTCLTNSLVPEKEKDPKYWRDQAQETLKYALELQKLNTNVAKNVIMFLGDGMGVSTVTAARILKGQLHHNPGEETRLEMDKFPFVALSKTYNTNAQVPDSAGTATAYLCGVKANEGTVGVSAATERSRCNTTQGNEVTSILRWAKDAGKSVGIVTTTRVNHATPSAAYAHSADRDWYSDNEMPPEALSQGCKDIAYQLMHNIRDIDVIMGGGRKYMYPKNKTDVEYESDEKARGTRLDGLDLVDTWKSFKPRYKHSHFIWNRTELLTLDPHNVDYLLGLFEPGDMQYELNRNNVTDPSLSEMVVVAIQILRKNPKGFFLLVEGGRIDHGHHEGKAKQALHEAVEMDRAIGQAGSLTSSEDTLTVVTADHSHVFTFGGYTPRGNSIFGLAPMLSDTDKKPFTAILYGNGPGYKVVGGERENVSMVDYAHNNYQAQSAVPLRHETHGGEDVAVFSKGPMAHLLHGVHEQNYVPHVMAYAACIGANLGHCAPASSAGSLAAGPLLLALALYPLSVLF
In words: TNAP enzyme inhibition by screening hits, dose response, selectivity assay for mouse IAP inhibitor project, biochemical, human TNAP, uHTS hits (AID 488906). In kind it is functional.

In a further experiment the target is Procathepsin L (Homo sapiens, UniProt P07711).
For experiment [8], the target named is T6, Replicative DNA helicase DnaB (Mycobacterium tuberculosis, UniProt P9WMR3).
T6 sequence (P9WMR3 whole entry): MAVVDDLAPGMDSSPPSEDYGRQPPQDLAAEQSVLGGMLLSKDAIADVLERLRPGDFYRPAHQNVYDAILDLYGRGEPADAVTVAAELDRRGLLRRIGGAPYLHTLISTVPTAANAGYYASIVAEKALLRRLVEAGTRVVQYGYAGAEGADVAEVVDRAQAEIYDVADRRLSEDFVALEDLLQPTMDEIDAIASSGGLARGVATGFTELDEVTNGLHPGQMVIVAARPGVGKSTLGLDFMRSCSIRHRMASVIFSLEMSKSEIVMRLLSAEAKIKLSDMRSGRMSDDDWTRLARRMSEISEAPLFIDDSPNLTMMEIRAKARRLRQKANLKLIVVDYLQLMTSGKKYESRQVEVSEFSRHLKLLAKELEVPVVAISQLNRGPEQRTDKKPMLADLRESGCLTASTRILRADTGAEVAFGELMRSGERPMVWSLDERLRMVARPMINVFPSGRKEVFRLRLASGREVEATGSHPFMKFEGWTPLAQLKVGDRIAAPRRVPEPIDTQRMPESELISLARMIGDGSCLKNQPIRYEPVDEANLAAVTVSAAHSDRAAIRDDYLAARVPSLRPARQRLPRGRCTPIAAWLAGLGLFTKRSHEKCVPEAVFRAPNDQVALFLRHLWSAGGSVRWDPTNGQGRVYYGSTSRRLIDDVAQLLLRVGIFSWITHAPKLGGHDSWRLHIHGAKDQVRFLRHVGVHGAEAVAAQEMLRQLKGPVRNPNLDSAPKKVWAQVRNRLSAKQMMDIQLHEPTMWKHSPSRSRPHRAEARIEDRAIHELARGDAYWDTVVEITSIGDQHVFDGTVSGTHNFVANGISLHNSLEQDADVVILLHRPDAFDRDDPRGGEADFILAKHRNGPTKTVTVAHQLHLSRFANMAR
In words: DnaB intein splicing inhibitors, dose response, biochemical, cell-free fluorescence (AID 449749). In kind it is functional.

Activity calls are given as the source filed them. Bounds are passed on as bounds.

DNA dC->dU-editing enzyme APOBEC-3G, sequence (Q9HC16 whole entry): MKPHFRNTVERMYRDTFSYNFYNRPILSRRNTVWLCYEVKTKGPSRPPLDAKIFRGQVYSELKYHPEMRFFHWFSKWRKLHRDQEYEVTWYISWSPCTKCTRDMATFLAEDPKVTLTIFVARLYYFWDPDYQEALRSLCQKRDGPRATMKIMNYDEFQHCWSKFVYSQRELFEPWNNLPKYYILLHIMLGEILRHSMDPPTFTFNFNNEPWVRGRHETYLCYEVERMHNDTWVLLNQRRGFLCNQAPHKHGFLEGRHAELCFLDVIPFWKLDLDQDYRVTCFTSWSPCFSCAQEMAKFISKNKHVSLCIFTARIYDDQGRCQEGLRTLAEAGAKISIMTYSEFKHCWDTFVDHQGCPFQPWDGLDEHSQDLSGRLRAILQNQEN
DNA dC->dU-editing enzyme APOBEC-3A, sequence (P31941 whole entry): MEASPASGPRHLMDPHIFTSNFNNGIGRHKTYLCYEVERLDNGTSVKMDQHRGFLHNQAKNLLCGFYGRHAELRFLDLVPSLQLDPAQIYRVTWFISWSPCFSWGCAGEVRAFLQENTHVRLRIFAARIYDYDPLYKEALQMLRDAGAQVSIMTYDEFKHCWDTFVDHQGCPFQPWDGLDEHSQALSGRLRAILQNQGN
Intestinal-type alkaline phosphatase (Homo sapiens, UniProt P09923), sequence (P09923 whole entry): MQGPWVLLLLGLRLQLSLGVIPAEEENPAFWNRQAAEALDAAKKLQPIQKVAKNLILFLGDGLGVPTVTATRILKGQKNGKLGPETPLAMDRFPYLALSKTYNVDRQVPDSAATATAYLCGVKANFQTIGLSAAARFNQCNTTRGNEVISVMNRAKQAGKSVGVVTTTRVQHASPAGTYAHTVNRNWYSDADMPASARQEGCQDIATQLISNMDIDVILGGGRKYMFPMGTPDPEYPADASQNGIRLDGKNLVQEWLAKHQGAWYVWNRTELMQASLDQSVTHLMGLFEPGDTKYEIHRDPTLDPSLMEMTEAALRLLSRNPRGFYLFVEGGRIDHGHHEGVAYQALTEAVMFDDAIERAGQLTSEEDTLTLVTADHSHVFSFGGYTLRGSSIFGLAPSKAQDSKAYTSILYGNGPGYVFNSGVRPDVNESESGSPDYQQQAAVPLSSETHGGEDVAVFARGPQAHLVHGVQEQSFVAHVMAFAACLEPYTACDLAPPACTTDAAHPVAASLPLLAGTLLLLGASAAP
Procathepsin L, sequence (P07711 whole entry): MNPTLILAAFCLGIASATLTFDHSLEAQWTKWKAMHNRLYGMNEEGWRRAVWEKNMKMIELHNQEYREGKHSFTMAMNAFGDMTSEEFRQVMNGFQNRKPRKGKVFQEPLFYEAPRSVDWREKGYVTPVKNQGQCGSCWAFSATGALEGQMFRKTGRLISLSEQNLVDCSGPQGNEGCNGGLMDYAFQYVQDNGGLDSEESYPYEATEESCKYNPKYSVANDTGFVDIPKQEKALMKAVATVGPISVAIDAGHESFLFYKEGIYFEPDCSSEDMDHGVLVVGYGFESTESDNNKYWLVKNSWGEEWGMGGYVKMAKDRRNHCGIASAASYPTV
Intestinal-type alkaline phosphatase (Mus musculus, UniProt P24822), sequence (P24822 whole entry): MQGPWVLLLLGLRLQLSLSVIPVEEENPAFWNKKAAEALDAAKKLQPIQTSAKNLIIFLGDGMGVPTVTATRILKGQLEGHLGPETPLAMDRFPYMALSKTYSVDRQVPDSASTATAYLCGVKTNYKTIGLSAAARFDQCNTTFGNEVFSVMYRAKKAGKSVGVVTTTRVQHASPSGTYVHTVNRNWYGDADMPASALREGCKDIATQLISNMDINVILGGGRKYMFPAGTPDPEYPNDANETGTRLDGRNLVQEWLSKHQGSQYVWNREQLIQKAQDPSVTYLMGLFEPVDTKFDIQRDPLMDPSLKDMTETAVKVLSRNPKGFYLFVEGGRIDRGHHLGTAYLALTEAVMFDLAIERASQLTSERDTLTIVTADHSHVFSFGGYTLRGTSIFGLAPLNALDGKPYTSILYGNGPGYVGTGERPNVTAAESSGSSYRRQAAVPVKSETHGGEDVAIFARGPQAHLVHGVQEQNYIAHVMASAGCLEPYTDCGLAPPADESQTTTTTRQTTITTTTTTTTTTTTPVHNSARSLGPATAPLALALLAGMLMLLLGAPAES

In general, IC50 refers to the concentration at which inhibition is half-maximal. In the case of `CCC(CO)(C(=O)OC1C[N+]2(C)CCC1CC2)c1ccccc1` (stereo not drawn), the IC50 in [1] was 2.25 µM (active); in [2], 2.09 µM (active).
As for `CCn1c(C)[n+](CC)c2cc(S(=O)(=O)NC)ccc21`, the results for the IC50 in experiment [1] and in experiment [2] were 6.81 µM (active) and 17.5 µM (active), respectively.
For `O=C(NCc1ccc2c(c1)OCO2)Nc1ccc2nc(-c3ccco3)c(-c3ccco3)nc2c1`, the IC50 in experiment [3] is 2.15 µM (active).
Broadly, the EC50 is the concentration giving half of the maximal effect. The AC50 is the midpoint of the concentration-response curve, whichever way the signal moves. With `Oc1cc(O)c2c(c1)O[C@H](c1ccc(O)c(O)c1)[C@H](O)C2` [(-)-EPICATECHIN], the EC50 in experiment [4] was > 100 µM (inactive); at Protein RecA, > 380 µM (inconclusive). The IC50 in experiment [5] is 206 µM (active); in experiment [6], 1.36 µM (active); on Aspartyl aminopeptidase it was 1.38 µM (active); in [7], 0.407 µM (active); at Procathepsin L, > 59.6 µM (not active). For the same compound, the AC50 in [8] was > 380 µM (inactive).
